In ChEMBL document CHEMBL6109071, “Chemical modification for improving drug-like molecular properties of climacostol, a natural resorcinolic lipid” (Bioorg Med Chem, 2025):
In brackets after ≈: the same amount, converted by molar mass. Activity calls are given as the source filed them. No cut-off for these calls is given here.

What was measured:
Paramecium tetraurelia [1] = assay: Potency index, ratio of climacostol LC50 to test compound LC50 for cytotoxicity against Paramecium tetraurelia stock 51; format: functional
SH-SY5Y [2] = assay: Induction of apoptosis in human SH-SY5Y cells assessed as chromatin condensation at 10 to 30 ug/ml measured after 9 hrs by DAPI/phalloidin staining based confocal microscopy; format: functional, cell-based; settings: dose 10-30 µg/ml
[3] = system: Paramecium multimicronucleatum; assay: Cytotoxicity against Paramecium multimicronucleatum clone TL-2 assessed as reduction in viability measured after 24 hrs; format: functional
Blepharisma japonicum [4] = assay: Cytotoxicity against Blepharisma japonicum R1072 assessed as reduction in viability measured after 24 hrs; format: functional
Stentor polymorphus [5] = assay: Cytotoxicity against Stentor polymorphus stock GF-1 assessed as reduction in viability measured after 24 hrs; format: functional
Euplotes aediculatus [6] = assay: Cytotoxicity against Euplotes aediculatus clone EA-III assessed as reduction in viability measured after 24 hrs; format: functional
Spirostomum teres [7] = assay: Cytotoxicity against Spirostomum teres stock Pol-1 assessed as reduction in viability measured after 24 hrs; format: functional
SH-SY5Y [8] = assay: Cytotoxicity against human SH-SY5Y cells assessed as reduction in cell viability measured after 24 hrs by MTT assay; format: functional, cell-based
Paramecium tetraurelia [9] = assay: Cytotoxicity against Paramecium tetraurelia stock 51 assessed as reduction in viability measured after 1 hr; format: functional
SH-SY5Y [10] = assay: Induction of apoptosis in human SH-SY5Y cells assessed as altered morphology of nuclear area at 10 to 30 ug/ml measured after 9 hrs by DAPI/phalloidin staining based confocal microscopy; format: functional, cell-based; settings: dose 10-30 µg/ml
[11] = Toxicity in Drosophila melanogaster Oregon-R assessed as DNA fragmentation in digestive tract of third instar larvae at 100 ug/ml administered through feeding measured after day 8 to 9 by TUNEL/DAPI staining based confocal microscopy; settings: po, time 8-9 day, dose 100 µg/ml
Stentor polymorphus [12] = assay: Cytotoxicity against Stentor polymorphus stock GF-1 assessed as reduction in viability measured after 1 hr; format: functional
SH-SY5Y [13] = assay: Induction of apoptosis in human SH-SY5Y cells assessed as increase in caspase-3 expression at 10 to 30 ug/ml measured after 9 hrs by immunostaining based confocal microscopy; format: functional, cell-based; settings: dose 10-30 µg/ml
Blepharisma japonicum [14] = assay: Cytotoxicity against Blepharisma japonicum R1072 assessed as reduction in viability measured after 1 hr; format: functional
[15] = Toxicity in Drosophila melanogaster Oregon-R assessed as change in larvae development by measuring reduction in developed third instar larvae at 100 ug/ml administered through feeding measured twice daily on day 8 to 9 post-treatment relative to control; set-up: scale not given: the % may be the effect or the level left; settings: po, at 100 µg/mL, time 8-9 day
[16] = system: Paramecium multimicronucleatum; assay: Potency index, ratio of climacostol LC50 to test compound LC50 for cytotoxicity against Paramecium multimicronucleatum clone TL-2; format: functional
SH-SY5Y [17] = assay: Induction of apoptosis in human SH-SY5Y cells assessed as cytoplasmic shrinkage at 10 to 30 ug/ml measured after 9 hrs by DAPI/phalloidin staining based confocal microscopy; format: functional, cell-based; settings: dose 10-30 µg/ml
Spirostomum ambiguum = assay: Cytotoxicity against Spirostomum ambiguum stock Pol-5 assessed as reduction in viability measured after 1 hr; format: functional
Paramecium tetraurelia [18] = assay: Cytotoxicity against Paramecium tetraurelia stock 51 assessed as reduction in viability measured after 24 hrs; format: functional
SH-SY5Y [19] = assay: Cytotoxicity against human SH-SY5Y cells assessed as cell death at 10 ug/ml measured after 24 hrs by MTT assay relative to control; format: functional
[20] = system: Paramecium multimicronucleatum; assay: Cytotoxicity against Paramecium multimicronucleatum clone TL-2 assessed as reduction in viability measured after 1 hr; format: functional
Euplotes aediculatus [21] = assay: Cytotoxicity against Euplotes aediculatus clone EA-III assessed as reduction in viability measured after 1 hr; format: functional
SH-SY5Y [22] = assay: Cytotoxicity against human SH-SY5Y cells assessed as reduction in cell viability at 30 ug/ml measured after 3 hrs by MTT assay relative to control; format: functional
Spirostomum teres [23] = assay: Cytotoxicity against Spirostomum teres stock Pol-1 assessed as reduction in viability measured after 1 hr; format: functional
[24] = Toxicity in Drosophila melanogaster Oregon-R assessed as increase in cleaved caspase-3 in the cytoplasm of midgut cells of third instar larvae at 100 ug/ml administered through feeding measured after day 8 to 9 by DAPI immunostaining based confocal microscopy; format: tissue-based; settings: po, time 8-9 day, dose 100 µg/ml
SH-SY5Y [25] = assay: Induction of apoptosis in human SH-SY5Y cells assessed as altered roundness of nuclear area at 10 to 30 ug/ml measured after 9 hrs by DAPI/phalloidin staining based confocal microscopy; format: functional, cell-based; settings: dose 10-30 µg/ml
Euplotes aediculatus [26] = assay: Potency index, ratio of climacostol LC50 to test compound LC50 for cytotoxicity against Euplotes aediculatus clone EA-III; format: functional
SH-SY5Y [27] = assay: Cytotoxicity against human SH-SY5Y cells assessed as cell death at 30 ug/ml measured after 24 hrs by MTT assay relative to control; format: functional

Structure (SMILES) | LC50 [3] | LC50 (Blepharisma japonicum [4]) | LC50 (Stentor polymorphus [5]) | LC50 (Euplotes aediculatus [6]) | LC50 (Spirostomum teres [7]) | Activity (SH-SY5Y [8]) | IC50 (SH-SY5Y [8]) | LC50 (Paramecium tetraurelia [9]) | LC50 (Stentor polymorphus [12]) | LC50 (Blepharisma japonicum [14]) | LC50 (Spirostomum ambiguum) | LC50 (Paramecium tetraurelia [18]) | LC50 [20] | LC50 (Euplotes aediculatus [21]) | LC50 (Spirostomum teres [23]) | other results
CCCCCC/C=C\Cc1cc(O)cc(O)c1O | 0.13 µg/mL (≈ 0.519 µM) | 2.07 µg/mL (≈ 8.27 µM) | 0.54 µg/mL (≈ 2.16 µM) | 0.23 µg/mL (≈ 0.919 µM) | 1.86 µg/mL (≈ 7.43 µM) | Dose-dependent-effect | 4.72 µg/mL (≈ 18.9 µM) | 0.29 µg/mL (≈ 1.16 µM) | 1.24 µg/mL (≈ 4.95 µM) | 3.97 µg/mL (≈ 15.9 µM) | 3.73 µg/mL (≈ 14.9 µM) | 0.21 µg/mL (≈ 0.839 µM) | 0.58 µg/mL (≈ 2.32 µM) | 0.7 µg/mL (≈ 2.8 µM) | 2.24 µg/mL (≈ 8.95 µM) | RatioLC50 (Paramecium tetraurelia [1]): 2.5; Activity (SH-SY5Y [2]): Active; Activity (SH-SY5Y [10]): Active; Activity [11]: Toxic; Activity (SH-SY5Y [13]): Active; Activity [15]: 23%; RatioLC50 [16]: 2.5; Activity (SH-SY5Y [17]): Active; Emax at 10 µg/mL (SH-SY5Y [19]): 90%; Activity (SH-SY5Y [22]; dose 30 µg/ml): 90%; Activity [24]: Toxic; Activity (SH-SY5Y [25]): Active; RatioLC50 (Euplotes aediculatus [26]): 2.5
CCCCCC/C=C\Cc1cc(O)cc(O)c1 | 0.88 µg/mL (≈ 3.76 µM) | 2.04 µg/mL (≈ 8.71 µM) | 0.94 µg/mL (≈ 4.01 µM) | 0.83 µg/mL (≈ 3.54 µM) | 1.68 µg/mL (≈ 7.17 µM) | Dose-dependent-effect | 12.9 µg/mL (≈ 54.9 µM) | 1.43 µg/mL (≈ 6.1 µM) | 1.21 µg/mL (≈ 5.16 µM) | 3.17 µg/mL (≈ 13.5 µM) | 2.03 µg/mL (≈ 8.66 µM) | 0.9 µg/mL (≈ 3.84 µM) | 1.64 µg/mL (≈ 7 µM) | 1.7 µg/mL (≈ 7.25 µM) | 2.04 µg/mL (≈ 8.71 µM) | Emax at 30 µg/mL (SH-SY5Y [27]): 90%; Activity (SH-SY5Y [22]; dose 30.0 µg/ml): inactive
